# Assay results as given in ChEMBL document CHEMBL3407440, “Monocarbonyl analogs of curcumin inhibit growth of antibiotic sensitive and resistant strains of Mycobacterium tuberculosis” (Eur J Med Chem, 2015).
# pIC50: −log10 of the molar value.
# Tested on: Mycobacterium tuberculosis
# Test: Antituberculosis activity against rifampicin-resistant Mycobacterium tuberculosis H37Rv assessed as growth inhibition after 72 hrs by liquid culture assay
# Assay type: functional, organism-based
structure (smiles),measurement,value
CN1C/C(=C\c2ccccn2)C(=O)/C(=C/c2ccccn2)C1,pIC50,5.15
O=C1/C(=C/c2ccccc2F)CNC/C1=C\c1ccccc1F,pIC50,4.70
